# In patent US20070059687A1, “Process for evaluating phagocytotic function and use thereof” (priority 2001, published 2007):
# Legend:
# [1] = system: Staphylococcus epidermidis; experiment: Lysis evaluated by decrease in turbidity at 600 nm; format: cell-based; conditions: for Decrease in turbidity of bacteria: lysostafin 50 unit/ml
# Source text: (§1) Conditions for the enzyme to lyse Staphylococcus aureus (ATCC 12600), Staphylococcus epidermidis (ATCC 14990), Pseudomonas aeruginosa (ATCC 10145), Enterococcus faecalis (ATCC 19433) and Escherichia coli (ATCC 11775) were studied. For Staphylococcus aureus and Staphylococcus epidermidis, lysostafin was used as the lytic enzyme (Bur. J. Biochem., 38, 293-300, 1973). […] Further, for Pseudomonas aeruginosa and Escherichia coli, PBS containing 70 mmol/l sodium hydroxide was used. Each type of these bacteria was inoculated in 5 ml of BHI (Brain Heart Infusion) liquid medium (manufactured by DIFCO), and cultured at 37° C. for 8 hours or longer. Thus cultured bacterial liquid was collected by centrifugation at 4° C. for 10 minutes at 2,000×g. The collected bacteria were suspended in PBS to give a sample.
# Lysis was evaluated by decrease in turbidity of the bacterial liquid at the absorbance of 600 nm using a microplate reader. Consequently, Staphylococcus aureus and Staphylococcus epidermidis were lysed by lysostafin. In respect of Pseudomonas aeruginosa and Escherichia coli, no enzymatic treatment was required because lysis was conducted with PBS containing 70 mmol/l sodium hydroxide. […] Moreover, when the bacterium incorporated upon phagocytotic action is for example, Pseudomonas aeruginosa, Escherichia coli or the like, bacterial cell wall is lysed during the alkaline treatment to result in the state in which the gene is exposed. Therefore, it is not necessary to conduct this enzymatic treatment. Each enzyme for the pretreatment which is used in lysis of the foreign microorganism according to the present invention is effective not only for the aforementioned bacterial strain, but also for other bacterial strain that includes other genus staphylococcus, genus streptococcus, genus bacillus, genus micrococcus and the like. […] The results are illustrated in FIG. 3, specifically, in regard to: (a) Staphylococcus aureus and Staphylococcus epidermidis, (b) Pseudomonas aeruginosa and Escherichia coli, and (c) Enterococcus faecalis.
# Enterococcus faecalis was inoculated in 50 ml of the aforementioned BHI liquid medium, and cultured at 37° C. for 8 hours or longer. This culture liquid was centrifuged at 4° C. for 10 minutes at 2,000×g to collect the bacteria, followed by subjecting to a heat treatment in an autoclave (120° C., for 10 minutes) after suspending in PBS. Next, the suspension was centrifuged at 4° C. for 10 minutes at 2,000×g, and the supernatant was discarded. Precipitates were suspended in 1 ml of PBS, and thereafter, subjected to freeze-drying. This freeze-dried sample was suspended in 5 mmol/l Tris-hydrochloric acid (pH 6.0), 2 mmol/l magnesium chloride containing 0 to 10% DMSO to give the samples for N-acetylmuramidase. Further, Micrococcus luteus (JCM1464) was inoculated in 5 ml of BHI liquid medium (supra), and cultured at 37° C. for 8 hours or longer. The cultured bacterial liquid was centrifuged at 4° C. for 10 minutes at 2,000×g to collect the bacteria. After discarding the supernatant, and suspending and washing the bacterial pellet with 5 ml of PBS, centrifugation was conducted once again at 4° C. for 10 minutes at 2,000×g to collect the bacteria. […] Enzymatic activity was evaluated on the basis of the decrease in turbidity of the sample at the absorbance of 600 nm using a microplate reader. […] Additionally, no decrease in enzymatic activity was found with DMSO at the concentration of 2% or less. […] The results are show in FIG. 4(a) to (c) and Table 3 below.
# SE digested sample = experiment: Enzymatic treatment of digested sample, bacterial bodies in leukocytes by acridine orange staining; format: cell-based, Staphylococcus epidermidis; set-up: key to enzymatic treatment determination: The determination was made as adequate when no bacterial body was identified in the leukocytes by the enzymatic treatment; conditions: for enzymatic treatment determination: SE digested sample, once, twice, thrice
# Experimental: (§2) Using the slide glass having each digested sample smeared thereon, the enzymatic pretreatment was performed according to the process described in Example 3. Next, the slide glass after completing the enzymatic pretreatment was placed in a humid box, and the reaction was allowed by dropping 1 ml of each enzyme solution prepared to give each titer on the smeared site of the specimen. Thereafter, the slide glass was immersed in PBS containing 0.2 mol/l hydrochloric acid, and in 70% ethanol respectively, for 10 minutes, and air dried. After immersing this slide glass in PBS containing 70 mmol/l sodium hydroxide for 3 minutes, and in 70% ethanol for 10 minutes, it was air dried and stained with 1% acridine orange staining solution. Then, evaluation was made with a fluorescence microscope (×1,000). For Staphylococcus aureus and Staphylococcus epidermidis, examination of the optimal titer was conducted with lysostafin. […] The determination was made as adequate when no bacterial body was identified in the leukocytes by the enzymatic treatment.
# (§3) Using a slide glass including each digested sample smeared thereon, examination was conducted according to the process described in example 17 (2). Time period of the enzymatic treatment in this test was 30 minutes, and the temperature for examination was 4° C., 25° C., 37° C., 42° C., and 60° C.
# (§4) Using the slide glass including each digested sample smeared thereon, examination was conducted according to the process described in example 17 (2). […] Determination was conducted according to the process described in example 17 (2). As a consequence, for all of Staphylococcus aureus, Staphylococcus epidermidis and Enterococcus faecalis digested samples, no bacterial body was found in the leukocytes with the time period of the enzymatic treatment of 20 minutes or longer (inadequate at 0 minute and 10 minutes). Therefore, the optimal time period of the enzymatic treatment is at least 15 minutes or longer, preferably 20 minutes or longer, and still preferably 30 minutes to 60 minutes.
# Staphylococcus aureus = experiment: Lysis evaluated by decrease in turbidity at 600 nm; format: cell-based; conditions: FIG. 3(a)
# Source text: as §1, with “sample. Lysis was evaluated by decrease in turbidity of the bacterial liquid at the absorbance of 600 nm using a microplate reader. Consequently, Staphylococcus aureus and Staphylococcus epidermidis were lysed by lysostafin. In respect of Pseudomonas aeruginosa and Escherichia coli, no enzymatic treatment was required because lysis was conducted with PBS containing 70 mmol/l sodium hydroxide. […]” for “sample.”
# SA digested sample = experiment: Enzymatic treatment of digested sample, bacterial bodies in leukocytes by acridine orange staining; format: cell-based, Staphylococcus aureus; set-up: key to enzymatic treatment determination: The determination was made as adequate when no bacterial body was identified in the leukocytes by the enzymatic treatment; conditions: for enzymatic treatment determination: SA digested sample, once, twice, thrice
# Experimental: as §2, §3, §4
substance,measurement,setting,value
Lysostafin: lytic enzyme used for Staphylococcus aureus and Staphylococcus epidermidis,lysis,[1]; FIG. 3(a),lysed
same,Decrease in turbidity of bacteria,[1]; added DMSO 0 % (control),0.168 ± 0.017 O.D./10 minutes
same,Decrease in turbidity of bacteria,[1]; added DMSO 0.1 %,0.164 ± 0.009 O.D./10 minutes
same,Decrease in turbidity of bacteria,[1]; added DMSO 1 %,0.160 ± 0.008 O.D./10 minutes
same,Decrease in turbidity of bacteria,[1]; added DMSO 2 %,0.145 ± 0.009 O.D./10 minutes
same,Decrease in turbidity of bacteria,[1]; added DMSO 5 %,0.124 ± 0.006 O.D./10 minutes
same,Decrease in turbidity of bacteria,[1]; added DMSO 10 %,0.094 ± 0.006 O.D./10 minutes
same,enzymatic treatment determination,SE digested sample; lysostafin titer 0.1 U/mL,inadequate
same,enzymatic treatment determination,SE digested sample; lysostafin titer 1 U/mL,inadequate
same,enzymatic treatment determination,SE digested sample; lysostafin titer 10 U/mL,adequate
same,enzymatic treatment determination,SE digested sample; lysostafin titer 100 U/mL,adequate
same,enzymatic treatment determination,"SE digested sample; lysostafin titer 1,000 U/mL",adequate
same,titer necessary for lysis,SE digested sample; lysis of Staphylococcus epidermidis,≥ 10 unit/ml
same,lysis,Staphylococcus aureus,lysed
same,enzymatic treatment determination,SA digested sample; lysostafin titer 0.1 U/mL,Inadequate
same,enzymatic treatment determination,SA digested sample; lysostafin titer 1 U/mL,adequate
same,enzymatic treatment determination,SA digested sample; lysostafin titer 10 U/mL,adequate
same,enzymatic treatment determination,SA digested sample; lysostafin titer 100 U/mL,adequate
same,enzymatic treatment determination,"SA digested sample; lysostafin titer 1,000 U/mL",adequate
same,titer at which sufficient effects were exerted,SA digested sample; lysis of Staphylococcus aureus,1 unit/ml
